The text below walks through data of patent US9102675B2, “3-Cyanoaryl-1H-pyrrolo[2,3-B] pyridine derivatives” (MERCK PATENT GMBH, priority 2011, dated 2015).

The test relates to TBK1 + IKKε. Put plainly: TBK1 + IKKε cell assay: dose response inhibition of phospho-IRF3 @ Ser 386 in MDA-MB-468 cells after poly(I:C) stimulation. Type of test: cell-based. The following applies: nuclear phospho-IRF3 Ser386, read-out: TBK1 + IKKε cell assay IC50. The source says:
Dose response inhibition of phospho-IRF3 @ Ser 386 cell/MDAMB468/INH/PHOS/IMAG/pIRF3
Although TBK1 and IKKε are mainly known as key substances in the innate immune response, recent findings have indicated a role for TBK1 and IKKε in Ras-induced oncogenic transformation. TBK1 was identified as RaIB effector in the Ras-like (RaI)-guanine nucleotide exchange factor (GEF) pathway that is required for Ras-induced transformation. TBK1 directly activates IRF3 which, on phosphorylation, homodimerises and translocates to the nucleus, where it activates processes associated with inflammation, immune regulation, cell survival and proliferation.
This assay has been developed in order to assess the efficacy/potency of TBK1/IKKε inhibitor compounds based on the immunocytochemical detection of nucleus-localised phospho-IRF3, a target directly downstream of TBK1. Treatment with polyinosine-polycytidylic acid (poly(I:C), a synthetic analogue of double-stranded RNA (dsRNA), a molecular pattern associated with viral infection and recognised by Toll-like receptor 3 (TLR3) is used to induce TBK1/IKKε activity and IRF3 phosphorylation at Ser386.
Day 1: MDA-MB-468 cells are detached using HyQ-Tase, counted and sown into a 384-well plate with TC surface and clear bottom in a density of 10,000 cells per well in a total volume of 35 μl of complete medium. Alternatively, the cells are sown directly from frozen glass vials.
Day 2: The cells are pre-treated with inhibitor compounds for 1 h prior to poly(I:C) stimulation. After incubation for 2 h with poly(I:C), the cells are fixed in (para)formaldehyde (PFA) and permeabilised using methanol (MeOH). The cells are then blocked and incubated with an anti-pIRF3 antibody at 4° C. overnight.
Day 3: The primary antibody is washed off, an AlexaFluor488-conjugated secondary antibody is added, the cells are contrast-stained with propidium iodide, followed by image acquisition on an IMX ultra-high content reader.
Plating medium=culture medium: • RPMI 1640, Invitrogen #31870 • 10% of FCS, Invitrogen #10270-106 • 2 mM Glutamax, Invitrogen #35050-038 • 1 mM sodium pyruvate, Invitrogen #11360 • 1% of Pen/Strep • 37° C., 5% of CO2
Plates: 384-well bottom cell culture plates with black/clear bottom, Falcon #35 3962 or Greiner #781090
Subcultivation: HyQ-Tase, Thermo Scientific (HyClone) # SV30030.01
Poly(I:C) (LMW), Invitrogen # tlrl-picw (prepare 20 mg/ml stock solution in sterile PBS, denature 30 min 55° C. in a water bath, slowly cool to RT, store at −20° C. in aliquots)
a 10-point dose-response curve with MSC2119074A-4=BX-795 is included in each experiment
Formaldehyde (methanol-free, 16%, ultrapure EM grade), Polysciences #18814 (storage RT), final conc.: 4%
Goat serum, PAA # B15-035 (storage 4° C., long term −20° C.), final conc.: 10%
BSA (IgG- and protease-free, 30%), US-Biological # A1317 (storage 4° C., long term −20° C.), final conc.: 2%
Tween 20 detergent, Calbiochem #655204 (storage RT), (prepare 10% stock solution in water; final conc.: 0.1%)
Anti-pIRF-3 rabbit mAb, Epitomics #2526-B (storage −20° C.), final conc.: 1:2000 in PBS/2% of BSA
Alexa Fluor goat-anti-rabbit-488, Invitrogen # A11034 or # A11008 (storage 4° C., dark), final conc.: 1:2000 in PBS/2% of BSA/0.1% of Tween
Propidium iodide (PI), Fluka #81845, 1 mg/ml in H2O (storage 4° C., dark), final conc.: 0.2 μg/ml
(1) Sow 10,000 cells/well/35μof complete RPMI +10% FCS into 384-well bottom cell culture plates with black / clear bottom,
(2) Incubate for 2 h at room temperature on the bench, followed by further incubation for 22 h at 37° C., 5% of CO2 and 90% RH. […]

The mark [1] stands for this setting: Homo sapiens, MDA-MB-468, MDA-MB-468 cells.

Where two headings read alike, the source gives them in different places. Bounds are passed on as bounds.

Regarding `N#Cc1cc(-c2c[nH]c3ncc(-c4cnn(C5COC5)c4)cc23)ccc1OC1COC1` [Compound A34, 2-(oxetan-3-yloxy)-5-[5-(1-oxetan-3-yl-1H-pyrazol-4-yl)-1H-pyrrolo-[2,3-b]pyridin-3-yl]benzonitrile], under setting [1], the half-maximal inhibitory concentration (IC50) – broadly, the concentration needed to halve the response being measured – lay within 3 to 50 µM.

On to `Cn1cc(-c2cnc3[nH]cc(-c4ccc(OC5CCOCC5)c(C#N)c4)c3c2)cn1` [Compound A4, 5-[5-(1-methylpyrazol-4-yl)-1H-pyrrolo[2,3-b]pyridin-3-yl]-2-tetrahydropyran-4-yloxybenzonitrile], for which the half-inhibitory concentration (IC50) under setting [1] fell in the range of 0.3 to 3 µM.

Consider `Cn1cc(-c2cnc3[nH]cc(-c4ccc(OC5COC5)c(C#N)c4)c3c2)cn1` [Compound A31, 5-[5-(1-methyl-1H-pyrazol-4-yl)-1H-pyrrolo[2,3-b]pyridin-3-yl]-2-(oxetan-3-yloxy)benzonitrile], for which the half-maximal inhibitory concentration (IC50) under setting [1] is 3 to 50 µM.

In the case of `N#Cc1cc(-c2c[nH]c3ncc(OCCN4CCOCC4)cc23)ccc1OC1CCOCC1` [Compound A21, 5-[5-(2-morpholinoethoxy)-1H-pyrrolo[2,3-b]pyridin-3-yl]-2-tetrahydropyran-4-yloxybenzonitrile], the half-inhibitory concentration (IC50) under setting [1] was 0.3 to 3 µM.

`Cn1cc(-c2cnc3[nH]cc(-c4ccc(OCC5(C)COC5)c(C#N)c4)c3c2)cn1` [Compound A32, 2-(3-methyloxetan-3-ylmethoxy)-5-[5-(1-methyl-1H-pyrazol-4-yl)-1H-pyrrolo[2,3-b]pyridin-3-yl]benzonitrile]: under setting [1], the 50% inhibitory concentration (IC50) was 0.3 to 3 µM.

Consider `N#Cc1cc(-c2c[nH]c3ncc(-c4cnn(CCN5CCCC5)c4)cc23)cnc1OC1CCOCC1` [Compound A33, 5-{5-[1-(2-Pyrrolidin-1-ylethyl)-1H-pyrazol-4-yl]-1H-pyrrolo[2,3-b]pyridin-3-yl}-2-(tetrahydropyran-4-yl-oxy)nicotinonitrile], for which the IC50 under setting [1] was in the range of 0.3 to 3 µM.

`N#Cc1cc(-c2c[nH]c3ncc(-c4cnn(CCN5CCOCC5)c4)cc23)ccc1OC1CCOCC1` [Compound A7, 5-[5-[1-(2-morpholinoethyl)pyrazol-4-yl]-1H-pyrrolo[2,3-b]pyridin-3-yl]-2-tetrahydropyran-4-yloxybenzonitrile]: under setting [1], the IC50 was in the range of 0.3 to 3 µM.

Take `N#Cc1cc(-c2c[nH]c3ncc(-c4ccc(N5CCOCC5)cc4)cc23)ccc1OC1CCOCC1` [Compound A8, 5-[5-(4-morpholinophenyl)-1H-pyrrolo[2,3-b]pyridin-3-yl]-2-tetrahydropyran-4-yloxybenzonitrile]: the IC50 under setting [1] was 3 to 50 µM.

As for `COCCn1cc(-c2cnc3[nH]cc(-c4cnc(OC5CCOCC5)c(C#N)c4)c3c2)cn1` [Compound A38, 5-{5-[1-(2-Methoxyethyl)-1H-pyrazol-4-yl]-1H-pyrrolo-[2,3-b]pyridin-3-yl}-2-(tetrahydropyran-4-yloxy)-nicotinonitrile], the 50% inhibitory concentration (IC50) under setting [1] lay within 0.3 to 3 µM.

In the case of `N#Cc1cc(-c2c[nH]c3ncc(-c4cn(C5CCNCC5)nn4)cc23)ccc1OC1CCOCC1` [Compound A22, 5-[5-[1-(4-piperidyl)triazol-4-yl]-1H-pyrrolo[2,3-b]pyridin-3-yl]-2-tetrahydropyran-4-yloxybenzonitrile], the half-maximal inhibitory concentration (IC50) (MDA-MB-468 cells) lay within 0.3 to 3 µM.

On to `CN1CCC(n2cc(-c3cnc4[nH]cc(-c5ccc(OC6CCOCC6)c(C#N)c5)c4c3)cn2)CC1` [Compound A16, 5-[5-[1-(1-methyl-4-piperidyl)pyrazol-4-yl]-1H-pyrrolo[2,3-b]pyridin-3-yl]-2-tetrahydropyran-4-yloxybenzonitrile], for which, under setting [1], the IC50 was less than 0.3 µM.

In the case of `N#Cc1cc(-c2c[nH]c3ncc(-c4cnn(C5COC5)c4)cc23)ccc1OC1CCOCC1` [Compound A26, 5-[5-[1-(Oxetan-3-yl)pyrazol-4-yl]-1H-pyrrolo[2,3-b]-pyridin-3-yl]-2-tetrahydropyran-4-yloxybenzonitrile], the 50% inhibitory concentration (IC50) under setting [1] is less than 0.3 µM.

For the compound `N#Cc1cc(-c2c[nH]c3ncccc23)ccc1OC1CCOCC1` [Compound A1, 5-(1H-pyrrolo[2,3-b]pyridin-3-yl)-2-tetrahydropyran-4-yloxybenzonitrile], the concentration for half-maximal inhibition (IC50) under setting [1] was in the range of 3 to 50 µM.

On to `CN1CCC(n2cc(-c3cnc4[nH]cc(-c5ccc(OC6CCOCC6)c(C#N)c5)c4c3)cn2)CC1` [Compound A20, 5-[5-[1-(1-methyl-4-piperidyl)pyrazol-4-yl]-1H-pyrrolo[2,3-b]pyridin-3-yl]-2-tetrahydropyran-4-yloxybenzonitrile], for which the IC50 (MDA-MB-468 cells) is 0.3 to 3 µM.

Turning to `CN1CCC(n2cc(-c3cnc4[nH]cc(-c5ccc(OC6CCOCC6)c(C#N)c5)c4c3)nn2)CC1` [Compound A23, 5-[5-[1-(1-methyl-4-piperidyl)triazol-4-yl]-1H-pyrrolo[2,3-b]pyridin-3-yl]-2-tetrahydropyran-4-yloxybenzonitrile], the half-maximal inhibitory concentration (IC50) (MDA-MB-468 cells) was 0.3 to 3 µM.

`N#Cc1cc(-c2c[nH]c3ncc(-c4cnn(C5CCNCC5)c4)cc23)cnc1OC1CCOCC1` [Compound A18, 5-[5-[1-(4-piperidyl)pyrazol-4-yl]-1H-pyrrolo[2,3-b]pyridin-3-yl]-2-tetrahydropyran-4-yloxypyridine-3-carbonitrile]: the half-maximal inhibitory concentration (IC50) under setting [1] lay within 0.3 to 3 µM.

For `CN1CCC(Oc2ccc(-c3c[nH]c4ncc(-c5cnn(C)c5)cc34)cc2C#N)CC1` [Compound A13, 2-(1-methylpiperidin-4-yloxy)-5-[5-(1-methyl-1H-pyrazol-4-yl)-1H-pyrrolo[2,3-b]pyridin-3-yl]benzonitrile], the IC50 under setting [1] is 3 to 50 µM.

As to `Cn1cc(-c2cnc3[nH]cc(-c4cnc(OC5CCOCC5)c(C#N)c4)c3c2)cn1` [Compound A30, 5-[5-(1-Methylpyrazol-4-yl)-1H-pyrrolo[2,3-b]pyridin-3-yl]-2-tetrahydropyran-4-yloxypyridine-3-carbonitrile], the IC50 under setting [1] is 0.3 to 3 µM.

Turning to `N#Cc1cc(-c2c[nH]c3ncc(-c4cn(CCN5CCCC5)nn4)cc23)ccc1OC1CCOCC1` [Compound A27, 5-[5-[1-(2-Pyrrolidin-1-ylethyl)triazol-4-yl]-1H-pyrrolo-[2,3-b]pyridin-3-yl]-2-tetrahydropyran-4-yloxybenzo-nitrile], under setting [1], the half-maximal inhibitory concentration (IC50) fell in the range of 0.3 to 3 µM.

Take `CN1CCN(c2cnc3[nH]cc(-c4ccc(OC5CCOCC5)c(C#N)c4)c3c2)CC1` [Compound A17, 5-[5-(4-methylpiperazin-1-yl)-1H-pyrrolo[2,3-b]pyridin-3-yl]-2-tetrahydropyran-4-yloxybenzonitrile]: the IC50 under setting [1] is 3 to 50 µM.

Turning to `N#Cc1cc(-c2c[nH]c3ncc(-c4cnn(C5COC5)c4)cc23)cnc1OC1CCOCC1` [Compound A37, 5-[5-(1-Oxetan-3-yl-1H-pyrazol-4-yl)-1H-pyrrolo-[2,3-b]pyridin-3-yl]-2-(tetrahydropyran-4-yloxy)-nicotinonitrile], under setting [1], the half-maximal inhibitory concentration (IC50) is 3 to 50 µM.

`CC1(COc2ccc(-c3c[nH]c4ncc(-c5cnn(C6COC6)c5)cc34)cc2C#N)COC1` [Compound A35, 2-(3-methyloxetan-3-ylmethoxy)-5-[5-(1-oxetan-3-yl-1H-pyrazol-4-yl)-1H-pyrrolo[2,3-b]-pyridin-3-yl]benzonitrile]: the concentration for half-maximal inhibition (IC50) under setting [1] lay within 0.3 to 3 µM.

In the case of `N#Cc1cc(-c2c[nH]c3ncc(-c4cnn(CCN5CCCC5)c4)cc23)ccc1OC1CCOCC1` [Compound A9, 5-[5-[1-(2-pyrrolidin-1-ylethyl)pyrazol-4-yl]-1H-pyrrolo[2,3-b]pyridin-3-yl]-2-tetrahydropyran-4-yloxybenzonitrile], under setting [1], the IC50 lay in the range of 0.3 to 3 µM.

For `CC1(COc2ccc(-c3c[nH]c4ncc(-c5cn[nH]c5)cc34)cc2C#N)COC1` [Compound A36, 2-(3-methyloxetan-3-ylmethoxy)-5-[5-(1H-pyrazol-4-yl)-1H-pyrrolo[2,3-b]pyridin-3-yl]benzonitrile], the IC50 under setting [1] lay within 3 to 50 µM.
